Data as given in PubChem BioAssay AID2305 (GlaxoSmithKline (GSK), 2010).
Where “and” joins values, the source holds several entries; their conditions need not be identical. Equal entries are not always repeated.

What follows are molecules tested on P. falciparum 3D7 growth, pLDH absorbance (assay: P. falciparum 3D7 growth inhibition, dose response, strain 3D7 (AID 2305)).

With `CCN(CC)CCNc1nc(C=Cc2ccc(Cl)cc2)nc2cc3ccccc3cc12` as the molecule, how does the IC50 read?
The IC50 was 150 nM.

Which IC50 does the source give for `COc1cccc(Cc2c(C)nc3nc(N)nc(N)c3c2C)c1` here?
The IC50 was 880 nM.

`COc1ccc2nccc([C@@H](O)CN3CCC(NC(=O)/C=C/c4cccc(C)c4)CC3)c2c1` was tested. Which IC50 did it give?
The IC50 was 1250 nM.

How did the IC50 turn out when `Cc1cc(N[C@@H](Cc2ccccc2)C(=O)NCCOc2ccccc2)nc(Nc2ccccc2)n1` was run?
The IC50 was 870 nM.

`Nc1ncc(-c2cccc(OCc3ccccc3)c2)cc1-c1nnc2ccc(Cl)nn12` was tested. Which IC50 did it give?
The IC50 was 1430 nM.

Which IC50 does the source give for `COc1cccc(CNC(=O)c2cnc(N3CCN(c4ccncc4)CC3)c(Cl)c2)c1` here?
The IC50 was 1150 nM.

Which IC50 does the source give for `CC(C)c1ccc2[nH]c(C(=O)NC3CCC(N4CCCc5ccc(C#N)cc5C4)CC3)cc2c1` (configuration not stated) here?
The IC50 was 1090 nM.

With `CCOC(=O)c1c(C)n(C2CCCCC2)c2cc(Br)c(O)cc12` as the molecule, how does the IC50 read?
The IC50 was 820 nM.

Which IC50 does the source give for `CC(C)(C)c1cc(C(=O)N2CCN(c3cnccn3)CC2)n(Cc2ccccc2)n1` here?
The IC50 was 1140 nM.

`Cn1c2c(c3ccccc31)CN(CCC1(c3ccc(Cl)c(Cl)c3)CN(C(=O)c3ccccc3)CCO1)CC2` (configuration not stated) was tested. Which IC50 did it give?
The IC50 was 310 nM.

How did the IC50 turn out when `COc1cccc(C(=O)C2CC2CN2CC=C(c3c[nH]c4ccc(OC)nc34)CC2)c1` (configuration not stated) was run?
Its IC50 is 530 nM.

How did the IC50 turn out when `O=C(NC(=Cc1cccc([N+](=O)[O-])c1)c1nc2ccccc2[nH]1)c1cccc(Br)c1` was run?
Its IC50 is 620 nM.

For `O=C(C=Cc1ccc(Cl)c(Cl)c1)NCCCCCN1CCCC(CCCNS(=O)(=O)c2cccc(C(F)(F)F)c2)C1` (configuration not stated), which IC50 is on record?
The IC50 was 960 nM.

`Cc1ccccc1C1CCN(C2CCC(NC(=O)/C=C/c3ccc(C#N)cc3)CC2)CC1` (configuration not stated) was tested. Which IC50 did it give?
The IC50 was 1170 nM.

How did the IC50 turn out when `Cc1nc(N)nc(N)c1OCc1cccc2c1ccc1ccccc12` was run?
The IC50 was 100 nM.

With `Cc1[nH]c(C)c(-c2ccc(-c3ccccc3C(F)(F)F)nc2)c(=O)c1Br` as the molecule, how does the IC50 read?
The IC50 was 170 nM.

With `CCc1ccc(CN2CCC(CNC(=O)c3cc(-c4ccccc4F)cs3)C2)cc1` (configuration not stated) as the molecule, how does the IC50 read?
Its IC50 is 900 nM.

How did the IC50 turn out when `O=C(c1cccc(Br)c1)N1CCN(c2ccc([N+](=O)[O-])c(NC3CC3)c2)CC1` was run?
Its IC50 is 940 nM.

`O=C(NCCN1CCC(c2ccncc2)CC1)c1cccc(Nc2nccc(Nc3ccc(Oc4ccccc4)cc3)n2)c1` was tested. Which IC50 did it give?
Its IC50 is 170 nM.

For `CC[C@H]1CN2CC[C@H]1C[C@H]2[C@H](O)c1cc(N2CCCC2)nc2ccc(OC)cc12`, which IC50 is on record?
Its IC50 is 40 nM.

How did the IC50 turn out when `CCCCn1c(C(C)Oc2ccc(Cl)cc2Cl)nc2cc(S(N)(=O)=O)ccc21` (configuration not stated) was run?
Its IC50 is 710 nM.

Which IC50 does the source give for `O=C(Nc1cccc(-c2csc(-c3nc4ccccc4[nH]3)c2)c1)c1ccoc1` here?
Its IC50 is 210 nM.

`N#Cc1ccc(C(=O)NC2CCN(CCCCCNC(=O)/C=C/c3ccc(Cl)c(Cl)c3)CC2)cc1` was tested. Which IC50 did it give?
Its IC50 is 840 nM.

Which IC50 does the source give for `O=C(NC1CCN(CC2(c3ccc(Cl)cc3)CCCCC2)CC1)c1ccn[nH]1` here?
Its IC50 is 80 nM.

`COc1cccc(C(=O)NCCc2cccc(Cl)c2)c1OCc1ccccc1` was tested. Which IC50 did it give?
The IC50 was 1260 nM.

With `O=C(Nc1cc(C(F)(F)F)cc(C(F)(F)F)c1)c1cc(Cl)ccc1O` as the molecule, how does the IC50 read?
The IC50 was 1310 nM.

For `Cc1cc(N2CCN(C)CC2)nc2ccc(NC(=O)c3cccc(N(C)C)c3)cc12`, which IC50 is on record?
Its IC50 is 950 nM.

Which IC50 does the source give for `COc1cc2c(cc1OC)CN(CCc1ccc(NC(=O)c3cc4cc(OC(F)(F)F)ccc4[nH]3)cc1)CC2` here?
Its IC50 is 530 nM.

`O=C(Nc1cccc(-c2cccc(-c3nc4ccc(C(F)(F)F)cc4[nH]3)c2)c1)c1ccoc1` was tested. Which IC50 did it give?
The IC50 was 280 nM.

Which IC50 does the source give for `CCOc1ccc(/C=C/C(=O)Nc2cccc3c2CCN(C)C3)cc1` here?
The IC50 was 1110 nM.

How did the IC50 turn out when `O=C(Nc1ccc2c(c1)CCN2C1CCN(Cc2cccc3cc[nH]c23)C1)c1ccco1` (configuration not stated) was run?
The IC50 was 1210 nM.

`COc1ccc2nc(-c3cc(-c4ccc(NC(=O)CN5CCOCC5)cc4)cnc3N)[nH]c2c1` was tested. Which IC50 did it give?
The IC50 was 620 nM.

How did the IC50 turn out when `CC1(C)CCCC(=Cc2ccc(Br)cc2)C1(O)Cn1ccnc1` (configuration not stated) was run?
Its IC50 is 790 nM.

For `COc1ccc(CC2(CO)CCN(Cc3ccc(O)c(Cl)c3)CC2)cc1`, which IC50 is on record?
Its IC50 is 860 nM.

With `CN1CCN(Cc2cc3cc(NC(=O)/C=C/c4cccc(Cl)c4)ccc3s2)CC1` as the molecule, how does the IC50 read?
Its IC50 is 270 nM.

Which IC50 does the source give for `CCOc1ccc(-c2nonc2NC(=O)CC(C)C)cc1OCC` here?
The IC50 was 980 nM.

Which IC50 does the source give for `C[C@@H]([C@@H](CCCCc1ccccc1)C(=O)N[C@H](C(=O)Nc1cccnc1)C(C)(C)C)N(O)C=O` here?
Its IC50 is 930 nM.

Which IC50 does the source give for `O=C(O)c1cc(OCC(O)COc2ccc(O)c(C(=O)O)c2)ccc1O` here?
Its IC50 is 230 nM.

How did the IC50 turn out when `Cc1c(C)c2c(c(C)c1O)CC[C@](C)(C(=O)NC1CCC(CN3CCC(c4c[nH]c5ccccc45)CC3)CC1)O2` (some centres not stated) was run?
Its IC50 is 880 nM and 1120 nM.

Which IC50 does the source give for `CCN(CC)CCCC(C)Nc1cc(C=Cc2ccccc2Cl)nc2cc(Cl)ccc12` (configuration not stated) here?
The IC50 was 800 nM.

With `CN(C)c1cc(NC(=O)Nc2ccccc2)c2ccccc2n1` as the molecule, how does the IC50 read?
The IC50 was 410 nM.

How did the IC50 turn out when `O=C(c1ccco1)c1cn(CCOc2ccccc2)c2ccccc12` was run?
Its IC50 is 750 nM.

How did the IC50 turn out when `CCc1c(CCNCCc2cccc(CCNCCc3ccc(OC)c(OC)c3CC)c2)ccc(OC)c1OC` was run?
The IC50 was 360 nM.

`Cc1cc(Cl)ccc1NC(=O)NCCCCCN1CCC(c2c[nH]c3ccccc23)CC1` was tested. Which IC50 did it give?
Its IC50 is 1010 nM.

With `C=CCOc1ccc(C2C(C(=O)OC)=C(C)NC3=C2C(=O)c2ccccc23)cc1OC` (configuration not stated) as the molecule, how does the IC50 read?
The IC50 was 880 nM.

For `Cc1nc(-c2ccc(-c3ccc(C(=O)Nc4ccc5c(c4)C4(CCNCC4)CO5)cc3)c(C)c2)no1`, which IC50 is on record?
Its IC50 is 860 nM.

For `Cc1c(C(=O)NC2CCC(CN3CCC(c4c[nH]c5ccccc45)CC3)CC2)cnn1-c1c(Cl)cc(Cl)cc1Cl` (configuration not stated), which IC50 is on record?
The IC50 was 710 nM.

How did the IC50 turn out when `CN(C)CCOc1cc(NC(=O)Nc2ccc(-c3ccncc3)c(Cl)c2)ccc1I` was run?
The IC50 was 140 nM.

How did the IC50 turn out when `COc1ccc(CCN(C)CCOc2ccc(NC(=O)COc3ccc4sc5ccccc5c(=O)c4c3)cc2)cc1OC` was run?
The IC50 was 1100 nM.

Which IC50 does the source give for `CCc1ccc(C(=O)Nc2cccc(CN3CCCN(Cc4ccc(O)cc4)CC3)c2)cc1` here?
Its IC50 is 1030 nM.

`CS(=O)(=O)CCNCc1cccc(-c2cc3nccc(Nc4ccc(Oc5ccccc5)cc4)c3cc2Cl)c1` was tested. Which IC50 did it give?
The IC50 was 620 nM.

With `CN(c1ccc2c(c1)nc(NCc1ccc(F)cc1)n2C)c1ccnc(Nc2ccc(CS(C)(=O)=O)cc2)n1` as the molecule, how does the IC50 read?
Its IC50 is 830 nM.

How did the IC50 turn out when `O=C(NC1CCN(Cc2ccsc2)CC1)c1ccc(-c2cccc(C(F)(F)F)c2)s1` was run?
The IC50 was 1440 nM.

`CN(CC(=O)Nc1cc(C(F)(F)F)ccc1-n1cncn1)Cc1nc2ccccc2s1` was tested. Which IC50 did it give?
The IC50 was 1410 nM.

Which IC50 does the source give for `COc1cccc(CN2CCCC(OC(c3ccccc3)c3ccccc3)C2)c1O` (configuration not stated) here?
The IC50 was 930 nM.

With `O=C(NCc1ccc(Cl)c(Cl)c1)[C@H]1CNCCN1C(=O)c1ccccc1` as the molecule, how does the IC50 read?
Its IC50 is 950 nM.

`O=C(NC1CC1)C1CCN(Cc2cc3ccccc3n2Cc2ccc(Cl)cc2)CC1` was tested. Which IC50 did it give?
The IC50 was 490 nM.

How did the IC50 turn out when `CCCCCCN(CCCCCC)CC(O)c1cc(-c2ccc(Cl)cc2)nc2c(C)cc(C)cc12` (configuration not stated) was run?
Its IC50 is 70 nM.

How did the IC50 turn out when `Cc1cc(OCC2CCN(c3ncc(C(=O)Nc4ccccc4)cc3Cl)CC2)ccc1F` was run?
The IC50 was 900 nM.

`Cn1c(O)c(N=NC(=S)N2CCOCC2)c2ccccc21` was tested. Which IC50 did it give?
Its IC50 is 900 nM.

`CC1CCCCC1N(C)C1CCN(CCCNC(=O)C=Cc2cccc(C(F)(F)F)c2)CC1` (configuration not stated) was tested. Which IC50 did it give?
Its IC50 is 770 nM.

How did the IC50 turn out when `COc1ccc(Cc2nc(N=C(N)Nc3ccccc3)ccc2OC)cc1` was run?
The IC50 was 850 nM.

For `CC1(C)OC[C@]2(C)[C@@H](CC[C@]3(C)C4=CC(=O)CCC4CC[C@@H]23)O1` (some centres not stated), which IC50 is on record?
The IC50 was 280 nM.

For `CCOc1ccc(Nc2nc(N)c3ccccc3n2)cc1`, which IC50 is on record?
The IC50 was 1150 nM.

How did the IC50 turn out when `CC(=O)Oc1c(Br)c(C)nc(C)c1-c1ccc(Oc2ccc(OC(F)(F)F)cc2)cc1` was run?
The IC50 was 130 nM.

`NC(=O)c1cc2nc(NC3CCC3)nc(Nc3cccc4[nH]ncc34)c2[nH]1` was tested. Which IC50 did it give?
The IC50 was 730 nM.

How did the IC50 turn out when `CCCCn1c(SC(C)C)nc2c(c1=O)C1(CCCCC1)Cc1ccccc1-2` was run?
The IC50 was 670 nM.

For `COc1cc2nc(N3CCC(CNC(=O)c4cc5ccccc5s4)CC3)nc(N)c2cc1OC`, which IC50 is on record?
Its IC50 is 290 nM.

With `NS(=O)(=O)NCCCN1CCN(c2ccccc2)CC1` as the molecule, how does the IC50 read?
The IC50 was 980 nM.

For `NC1CCN(Cc2ccc(-c3ccc(-c4nc5ccc(F)cc5[nH]4)cc3)cc2)C1` (configuration not stated), which IC50 is on record?
The IC50 was 180 nM.

With `O=C(/C=C/c1ccsc1)NC1CCC(CN2CCC(c3c[nH]c4ccccc34)CC2)CC1` (configuration not stated) as the molecule, how does the IC50 read?
The IC50 was 1120 nM.

`O=c1cc(NCCCCNCc2cccc(C(F)(F)F)c2)[nH]c2ccccc12` was tested. Which IC50 did it give?
Its IC50 is 790 nM.
